Experimental data taken from patent EP4570793A1, “5-HT2A RECEPTOR INVERSE AGONIST, AND PREPARATION METHOD THEREFOR AND USE THEREOF” (Luye Innomind Pharma Shijiazhuang Co., Ltd., priority 2022, dated 2024).
Read-outs that look alike come from different tables or passages of the source.

Key:
5-HT2A receptor = 5-HT2A receptor (Homo sapiens, UniProt P28223); assay: Assay for 5-HT2A receptor inverse agonist activity (NIH3T3-5-HT2A R cells, Bright-Glo luciferase, cell inhibition rate)
Protocol: Assay for 5-HT2A Receptor Inverse Agonist Activity
• Cell line: adherent cells NIH3T3-5-HT2A R • Cell culture medium: DMEM + 10% FBS (purchased from GBICO) • Cell culture plate: 96-well white/clear bottom plate (purchased from Perkin Elmer) • Detection kit: Bright-Glo™ Luciferase (purchased from Promega) • Detection instrument: BioTek multimode microplate reader
NIH3T3-5HT2A R cells in the logarithmic growth phase were seeded into a 96-well white/clear bottom plate at a density of 1000 cells/well and then cultured overnight in an incubator at 37 °C with 5% CO2. […] Duplicate wells were set up for each concentration. […] After the drug addition, the cells were cultured in the incubator at 37 °C with 5% CO2 for another 120 h. On the sixth day, a Bright-Glo™ Luciferase reagent was added to the cells in a volume equal to that of the cell culture medium. The plate was then incubated in the dark at room temperature for 20 min, with the plate shaker vibrating once every 5 min. The luminescence intensity was detected using a microplate reader, and the cell inhibition rate was calculated. Data were processed using GraphPad Prism 7.0 to obtain the cell inhibition rate curve and calculate IC50.

hERG potassium channels = hERG potassium channels (Homo sapiens, UniProt Q12809); assay: cell-based
Sequence of hERG potassium channels (Q12809 whole entry): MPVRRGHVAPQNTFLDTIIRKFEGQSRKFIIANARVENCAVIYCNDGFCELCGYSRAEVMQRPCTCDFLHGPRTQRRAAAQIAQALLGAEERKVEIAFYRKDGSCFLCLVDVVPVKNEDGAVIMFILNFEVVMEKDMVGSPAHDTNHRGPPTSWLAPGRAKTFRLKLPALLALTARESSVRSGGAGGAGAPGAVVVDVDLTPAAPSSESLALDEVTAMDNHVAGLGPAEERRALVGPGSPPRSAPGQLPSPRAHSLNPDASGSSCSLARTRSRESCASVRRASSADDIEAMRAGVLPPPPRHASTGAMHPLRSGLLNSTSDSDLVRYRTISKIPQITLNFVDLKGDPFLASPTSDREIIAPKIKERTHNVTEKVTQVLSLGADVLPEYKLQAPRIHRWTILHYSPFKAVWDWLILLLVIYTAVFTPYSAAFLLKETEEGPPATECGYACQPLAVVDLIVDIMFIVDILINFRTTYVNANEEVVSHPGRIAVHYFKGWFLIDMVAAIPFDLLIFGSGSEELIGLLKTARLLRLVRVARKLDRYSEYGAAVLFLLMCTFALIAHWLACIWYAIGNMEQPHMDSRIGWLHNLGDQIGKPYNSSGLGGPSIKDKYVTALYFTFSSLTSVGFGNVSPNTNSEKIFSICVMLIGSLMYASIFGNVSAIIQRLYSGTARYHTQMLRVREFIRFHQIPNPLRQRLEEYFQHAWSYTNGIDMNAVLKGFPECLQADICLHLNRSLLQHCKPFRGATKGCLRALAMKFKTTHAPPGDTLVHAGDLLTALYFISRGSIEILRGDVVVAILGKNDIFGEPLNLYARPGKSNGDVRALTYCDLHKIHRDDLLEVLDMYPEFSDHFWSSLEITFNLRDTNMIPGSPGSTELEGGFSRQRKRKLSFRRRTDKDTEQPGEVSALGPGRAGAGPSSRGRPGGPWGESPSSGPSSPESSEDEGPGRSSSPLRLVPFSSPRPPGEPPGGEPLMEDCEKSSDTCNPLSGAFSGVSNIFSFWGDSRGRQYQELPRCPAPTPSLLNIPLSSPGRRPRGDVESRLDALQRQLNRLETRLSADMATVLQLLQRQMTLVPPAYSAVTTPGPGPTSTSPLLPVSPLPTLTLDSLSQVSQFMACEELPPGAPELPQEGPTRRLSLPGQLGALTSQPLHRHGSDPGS
Protocol: • Species & strain: CHO-hERG cell line (Chinese hamster ovary cells stably expressing hERG channels) • Culture medium: 90% F12, 10% fetal bovine serum, 100 µg/mL G418, and 100 µg/mL Hygromycin B • Culture conditions: incubator at 37 °C with 5% CO2 • Cryopreservation condition: liquid nitrogen
On the day of the test, the compound was diluted with DMSO to an intermediate concentration. Then, 10 µL of the intermediate-concentration compound was transferred to 4990 µL of extracellular fluid, achieving a 500-fold dilution to obtain the final concentration to be tested.
hERG potassium channel currents were recorded at room temperature by the whole-cell patch clamp technique in the CHO (Chinese hamster ovary) cells stably expressing hERG potassium channels. Glass microelectrodes were formed by pulling a glass electrode blank (BF150-86-10, Sutter) using a puller. The tip resistance after perfusion of electrode internal solution was about 2-5 MΩ. The glass microelectrodes could be connected to a patch clamp amplifier after being inserted into amplifier probes. The clamping voltage and data recording were controlled and recorded by a computer with a pClamp 10 software, with a sampling frequency of 10 kHz and a filtering frequency of 2 kHz. After achieving the whole-cell recording, the cells were clamped at -80 mV. The step voltage evoking hERG potassium current (IhERG) was changed from -80 mV to +20 mV by applying a 2 s depolarization voltage, followed by repolarization to -50 mV for 1 s, and then returned to -80 mV. This voltage stimulation was applied every 10 s, and after it was determined that the hERG potassium currents were stable (1 min), the administration process was started. Each test concentration of the compound was applied for at least 1 min, and at least 2 cells (n ≥ 2) were tested for each concentration.

[1] = In-vitro liver microsomal stability (dog); format: in vitro ADME; details: Dog liver microsomes, 1 µM, 0.5 mg/mL, NADPH
Protocol: (§1) Test Example 3. Evaluation of In-Vitro Liver Microsomal Stability
(§2) • 1) Preparation of test sample working solution: A test sample was diluted to 100 µM with methanol. • 2) Preparation of liver microsome working solution: Liver microsomes were diluted to 0.56 mg/mL with 100 mM phosphate-buffered saline. • 3) Preparation of working solution of reduced nicotinamide adenine dinucleotide phosphate (NADPH): A proper amount of NADPH was weighed out and diluted to 20 mM with phosphate-buffered saline, and then an equal volume of a 60 mM MgCl2 solution was added. • 4) Preparation of stop solution: Tolbutamide was diluted to 20 ng/mL with acetonitrile to serve as a stop solution containing an internal standard.
• 1) Anti-adsorption EP tubes for incubation were prepared and labeled with species, test samples, control samples (testosterone and dextromethorphan), time points (0 min, 5 min, 10 min, 20 min, 30 min, 60 min, Blank60, and NCF60), etc. • 2) 2 µL of test or control sample working solution and 178 µL of liver microsome working solution were added to each tube. For the Blank tube, 2 µL of acetonitrile was added instead of the test sample. The tubes were preincubated in a water bath at 37 °C for about 10 min, with 3 replicates set up for each sample. • 3) After the pre-incubation was completed, 20 µL of NADPH working solution was added to each tube except for the 0 min and NCF60 tubes to start the reaction. For the NCF60 tube, 20 µL of phosphate-buffered saline (containing 30 mM MgCl2) was added. In the incubation system, the final concentration of the test or control sample was 1 µM, the final concentration of liver microsomes was 0.5 mg/mL, the final concentration of NADPH was 1 mM, and the final concentration of MgCl2 was 3 mM. • 4) For the 0 min sample, 600 µL of stop solution was added, followed by the addition of the NADPH working solution. For the other samples, after each of them was incubated for the corresponding time, 600 µL of stop solution was added to stop the reaction. • 5) After the reaction was stopped, each sample was vortexed for 30 s and then centrifuged at 13500 rpm for 10 min. Then, 100 µL of the supernatant was transferred to an EP tube, and 100 µL of Milli-Q water was added. The mixture was well mixed by vortexing and analyzed by LC-MS/MS. • 6) Testosterone and dextromethorphan were used as positive control samples under the same conditions to assess the stability and reliability of the system. […]

[2] = In-vitro liver microsomal stability (human); format: in vitro ADME; details: Human liver microsomes, 1 µM, 0.5 mg/mL, NADPH
Protocol: as §1, §2
• 1) Anti-adsorption EP tubes for incubation were prepared and labeled with species, test samples, control samples (testosterone and dextromethorphan), time points (0 min, 5 min, 10 min, 20 min, 30 min, 60 min, Blank60, and NCF60), etc. • 2) 2 µL of test or control sample working solution and 178 µL of liver microsome working solution were added to each tube. For the Blank tube, 2 µL of acetonitrile was added instead of the test sample. The tubes were preincubated in a water bath at 37 °C for about 10 min, with 3 replicates set up for each sample. • 3) After the pre-incubation was completed, 20 µL of NADPH working solution was added to each tube except for the 0 min and NCF60 tubes to start the reaction. For the NCF60 tube, 20 µL of phosphate-buffered saline (containing 30 mM MgCl2) was added. In the incubation system, the final concentration of the test or control sample was 1 µM, the final concentration of liver microsomes was 0.5 mg/mL, the final concentration of NADPH was 1 mM, and the final concentration of MgCl2 was 3 mM. • 4) For the 0 min sample, 600 µL of stop solution was added, followed by the addition of the NADPH working solution. For the other samples, after each of them was incubated for the corresponding time, 600 µL of stop solution was added to stop the reaction. • 5) After the reaction was stopped, each sample was vortexed for 30 s and then centrifuged at 13500 rpm for 10 min. Then, 100 µL of the supernatant was transferred to an EP tube, and 100 µL of Milli-Q water was added. The mixture was well mixed by vortexing and analyzed by LC-MS/MS. • 6) Testosterone and dextromethorphan were used as positive control samples under the same conditions to assess the stability and reliability of the system.
Table 2: Test data for the compounds of the present disclosure in human and rat liver microsomes

[3] = 5-HT2A inverse agonist activity IC50 (nM), NIH3T3-5HT2A R cells, 120 h, luminescence

Sequence of 5-HT2A receptor (P28223 whole entry): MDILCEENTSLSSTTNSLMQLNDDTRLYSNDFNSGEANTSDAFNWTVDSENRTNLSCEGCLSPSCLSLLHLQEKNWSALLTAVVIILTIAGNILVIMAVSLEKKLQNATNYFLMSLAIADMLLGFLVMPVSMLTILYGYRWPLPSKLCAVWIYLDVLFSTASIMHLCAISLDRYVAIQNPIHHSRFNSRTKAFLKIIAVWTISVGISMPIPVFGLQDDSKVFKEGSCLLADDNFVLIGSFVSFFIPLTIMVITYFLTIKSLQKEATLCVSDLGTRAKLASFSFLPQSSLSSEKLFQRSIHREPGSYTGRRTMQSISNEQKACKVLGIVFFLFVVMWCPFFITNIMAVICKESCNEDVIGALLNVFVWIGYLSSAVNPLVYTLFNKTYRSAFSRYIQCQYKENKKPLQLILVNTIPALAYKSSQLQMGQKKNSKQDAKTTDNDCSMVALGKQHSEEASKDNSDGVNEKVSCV

SMILES	IC50 (5-HT2A receptor)	IC50 (5-HT2A receptor; [3])	further results
O=C(NCc1ccc(OCC(F)(F)F)nc1)N(Cc1ccc(F)cn1)C1CCNCC1F (single isomer, unassigned) [Compound 56B]	–	325 nM	IC50 (hERG potassium channels): 12600 nM
CN1CC[C@H](N(Cc2ccc(F)cn2)C(=O)NCc2ccc(OCC(F)(F)F)nc2)[C@@H](F)C1 [Compound 66]	22.7 nM	–	Remaining amount% at 60 min [1]: 85.1%; Remaining amount% at 60 min [2]: 73.7%; IC50 (hERG potassium channels): 2990 nM
CC(C)N1CC[C@H](N(Cc2ccc(F)cn2)C(=O)NCc2ccc(OCC(F)(F)F)nc2)[C@H](F)C1 (single isomer, unassigned) [Compound 70B]	–	280 nM	–
CN1CCC(N(Cc2ccc(F)cn2)C(=O)NCc2ccc(OCC(F)(F)F)nc2)C(C)(C)C1 (single isomer, unassigned) [Compound 49B]	–	> 1000 nM	–
CN1CCC(N(Cc2ccc(F)cn2)C(=O)NCc2ccc3c(c2)CCC3)CC1 [Compound 60]	64.4 nM	–	–
CN1CCC(N(Cc2ccc(F)cn2)C(=O)NCc2ccc(OC3CC3)cn2)CC1 [Compound 2]	72.8 nM	–	Remaining amount% at 60 min [1]: 76.7%; Remaining amount% at 60 min [2]: 79.7%
CN1CCC(N(Cc2ccc(F)cn2)C(=O)NCc2ccc(OCC(F)(F)F)nc2)CC1 [Compound 5]	–	13.1 nM	Remaining amount% at 60 min [1]: 99.8%; Remaining amount% at 60 min [2]: 99.9%
CN1CCC(N(Cc2ccc(F)cn2)C(=O)NCc2ccc(OCC(F)(F)F)nc2)C2(CC2)C1 (single isomer, unassigned) [Compound 50B]	–	381 nM	–
CN1CCC(N(Cc2ccc(F)cn2)C(=O)NCc2ccc(OCC3CC3(C)C)cn2)CC1 (stereo not shown) [Compound 4]	> 1000 nM	–	–
CN1CCC(N(Cc2ccc(F)cn2)C(=O)NCc2cnc(OC3CC(F)(F)C3)c(F)c2)CC1 [Compound 19]	33.1 nM	–	Remaining amount% at 60 min [1]: 78.39%; Remaining amount% at 60 min [2]: 72.49%
CC(C)N1CC[C@@H](N(Cc2ccc(F)cn2)C(=O)NCc2ccc(OCC(F)(F)F)nc2)[C@@H](F)C1 (single isomer, unassigned) [Compound 70A]	–	> 1000 nM	–
CCN1CC[C@H](N(Cc2ccc(F)cn2)C(=O)NCc2ccc(OCC(F)(F)F)nc2)[C@H](F)C1 (single isomer, unassigned) [Compound 69B]	–	156 nM	–
CN1CCC(N(Cc2ccc(F)cc2)C(=O)NCc2ccc(OCC(F)(F)F)nc2)C2(CC2)C1 (single isomer, unassigned) [Compound 83A]	–	10.4 nM	–
CN1CCC(N(Cc2ccc(F)cn2)C(=O)NCc2ccc3nc[nH]c3c2)CC1 [Compound 11]	672 nM	–	–
CN1CCC(N(Cc2ccc(F)cn2)C(=O)NCc2ccc(OCC(F)(F)F)nc2)C(C)(C)C1 (single isomer, unassigned) [Compound 49A]	–	105 nM	–
CN1CC2CCC(C1)C2N(Cc1ccc(F)cn1)C(=O)NCc1ccc(OCC(F)(F)F)nc1 (stereo not shown) [Compound 77]	> 1000 nM	–	–
[2H]C([2H])([2H])N1CC[C@H](N(Cc2ccc(F)cn2)C(=O)NCc2ccc(OCC(F)(F)F)nc2)[C@H](F)C1 (single isomer, unassigned) [Compound 72B]	–	43.7 nM	–
CC(C)COc1ccc(CNC(=O)N(Cc2ccc(F)cc2)C2CCN(C)CC2)cc1 [Pimavanserin, reference compound]	–	–	Remaining amount% at 60 min [1]: 68.5%; Remaining amount% at 60 min [2]: 70.7%
CN1CCC(N(Cc2ccc(F)cn2)C(=O)NCc2ccc(OCC(F)(F)F)nc2)C(F)(F)C1 (single isomer, unassigned) [Compound 46A]	–	> 1000 nM	Remaining amount% at 60 min [1]: 40.77%; Remaining amount% at 60 min [2]: 1.21%

SMILES	IC50 (5-HT2A receptor)	IC50 (5-HT2A receptor; [3])	further results
CN1C2CCC1CC(N(Cc1ccc(F)cn1)C(=O)NCc1ccc(OCC(F)(F)F)nc1)C2 (stereo not shown) [Compound 79]	771 nM	–	–
CN1CCC(N(Cc2ccc(F)cn2)C(=O)NCc2ccc3c(c2)C=CC3)CC1 [Compound 59]	86.1 nM	–	IC50 (hERG potassium channels): 1480 nM
CCN1CC[C@@H](N(Cc2ccc(F)cn2)C(=O)NCc2ccc(OCC(F)(F)F)nc2)[C@@H](F)C1 (single isomer, unassigned) [Compound 69A]	–	> 1000 nM	–
CN1CCC(N(Cc2ccc(F)cc2)C(=O)NCc2ccc(OCC(F)(F)F)nc2)C2(CC2)C1 (single isomer, unassigned) [Compound 83B]	–	211 nM	–
CN1CCC(N(Cc2ccc(F)cn2)C(=O)NCc2ccc3ccccc3c2)CC1 [Compound 61]	79.2 nM	–	–
CN1CC[C@@H](N(Cc2ccc(F)cc2)C(=O)NCc2ccc3c(ccn3C)c2)[C@@H](F)C1 (single isomer, unassigned) [Compound 85A]	–	> 1000 nM	–
CN1CC[C@H](N(Cc2ccc(F)cc2)C(=O)NCc2ccc3c(ccn3C)c2)[C@H](F)C1 (single isomer, unassigned) [Compound 85B]	–	88.7 nM	–
CN1CCC(N(Cc2ccc(F)cn2)C(=O)NCc2ccc3sccc3c2)CC1 [Compound 58]	41 nM	–	–
CC(C)COc1ccc(CNC(=O)N(Cc2ccc3ncccc3c2)C2CCN(C)CC2)nc1 [Compound 8]	> 1000 nM	–	–
CN1CCC(N(Cc2ccc(F)cn2)C(=O)NCc2ccc(OC3CC(F)(F)C3)nc2)CC1 [Compound 6]	–	25.4 nM	Remaining amount% at 60 min [1]: 98.8%; Remaining amount% at 60 min [2]: 90.8%
CN1CCC(N(Cc2ccc(F)cn2)C(=O)NCc2ccc(OCC3CC3)cn2)CC1 [Compound 3]	149 nM	–	Remaining amount% at 60 min [1]: 100.0%; Remaining amount% at 60 min [2]: 94.1%
CN1CCC(N(Cc2ccc(F)cn2)C(=O)NCc2ccc3occc3c2)CC1 [Compound 57]	–	51.9 nM	IC50 (hERG potassium channels): 1440 nM
CN1CC[C@@H](N(Cc2ccc(F)cn2)C(=O)NCc2ccc(OCC(F)(F)F)nc2)[C@H](F)C1 [Compound 67]	> 1000 nM	–	Remaining amount% at 60 min [1]: 81.4%; Remaining amount% at 60 min [2]: 66.2%
CN1CCC(N(Cc2ccc(F)cn2)C(=O)NCc2ccc3c(c2)c(F)cn3C)CC1 [Compound 13]	184 nM	–	–
[2H]C([2H])([2H])N1CC[C@@H](N(Cc2ccc(F)cn2)C(=O)NCc2ccc(OCC(F)(F)F)nc2)[C@@H](F)C1 (single isomer, unassigned) [Compound 72A]	–	416 nM	–
CC(C)COc1ccc(CNC(=O)N(Cc2ccc3ncccc3c2)C2CCN(C)CC2)cc1 [Compound 7]	> 1000 nM	–	IC50 (hERG potassium channels): 1320 nM
CN1CCC(N(Cc2ccc(F)cn2)C(=O)NCc2ccc3c(c2)c(C(F)(F)F)cn3C)CC1 [Compound 84]	> 1000 nM	–	–
O=C(NCc1ccc(OCC(F)(F)F)nc1)N(Cc1ccc(F)cn1)C1CCNCC1F (single isomer, unassigned) [Compound 56A]	–	> 1000 nM	IC50 (hERG potassium channels): 15500 nM

Further lines, with some results ahead:

IC50 (5-HT2A receptor)	SMILES	IC50 (5-HT2A receptor; [3])	further results
664 nM	Cc1cc(CN(C(=O)NCc2ccc(OCC(F)(F)F)nc2)[C@H]2CCN(C)C[C@H]2F)nn1C [Compound 82B]	–	–
> 1000 nM	CN1CC[C@@H](N(Cc2ccc(F)cc2)C(=O)NCc2ccc3ncccc3c2)[C@@H](F)C1 [Compound 86A]	–	–
36.8 nM	CN1CC[C@H](N(Cc2ccc(F)cc2)C(=O)NCc2ccc3ncccc3c2)[C@H](F)C1 [Compound 86B]	–	–
> 1000 nM	Cc1cc(CN(C(=O)NCc2ccc(OCC(F)(F)F)nc2)[C@@H]2CCN(C)C[C@@H]2F)nn1C [Compound 82A]	–	–
